The values that follow come from PMC5218480 (PLoS ONE, 2017).

The test concerns MV-4-11 cells. The test is described as follows: Gene expression microarray analysis (Affymetrix PrimeView) and GSEA. Type of test: cell-based, human. The arrangement: RFU PODN (11730768_x_at) / Fold change /veh PODN (11730768_x_at) / RFU LINC00158 (11744669_a_at) / Fold change /veh LINC00158 (11744669_a_at) / RFU DUSP10 (11751237_a_at) / Fold change /veh DUSP10 (11751237_a_at) / RFU ID3 (11757404_x_at) / Fold change /veh ID3 (11757404_x_at) / RFU PLEKHG5 (11737974_s_at) / Fold change /veh PLEKHG5 (11737974_s_at) / RFU LRRC4B (11730491_at) / Fold change /veh LRRC4B (11730491_at) / RFU GIMAP4 (11747438_a_at) / Fold change /veh GIMAP4 (11747438_a_at) / RFU KRT8 (11758183_x_at) / Fold change /veh KRT8 (11758183_x_at) / RFU CNN1 (11734310_a_at) / Fold change /veh CNN1 (11734310_a_at) / RFU VPS37D (11726825_at) / Fold change /veh VPS37D (11726825_at) / RFU C10orf10 (11716522_x_at) / Fold change /veh C10orf10 (11716522_x_at) / RFU KIR2DL2 /// KIR2DL4 /// KIR2DL5A /// KIR2DL5B /// KIR2DS1 /// KIR2DS2 /// KIR2DS3 /// KIR2DS4 /// KIR3DL3 /// KIR3DL3 /// KIR3DS1 (11738374_at) / Fold change /veh KIR2DL2 /// KIR2DL4 /// KIR2DL5A /// KIR2DL5B /// KIR2DS1 /// KIR2DS2 /// KIR2DS3 /// KIR2DS4 /// KIR3DL3 /// KIR3DL3 /// KIR3DS1 (11738374_at) / RFU C1QL1 (11718748_at) / Fold change /veh C1QL1 (11718748_at) / RFU TMPRSS4 (11747572_a_at) / Fold change /veh TMPRSS4 (11747572_a_at) / RFU HAMP (11756126_x_at) / Fold change /veh HAMP (11756126_x_at) / RFU RNFT2 (11725882_a_at) / Fold change /veh RNFT2 (11725882_a_at) / RFU NR4A2 (11747474_a_at) / Fold change /veh NR4A2 (11747474_a_at) / RFU ABCC12 (11746883_a_at) / Fold change /veh ABCC12 (11746883_a_at) / RFU TMEM136 (11760407_x_at) / Fold change /veh TMEM136 (11760407_x_at) / RFU CLDN22 /// WWC2 (11732394_at) / Fold change /veh CLDN22 /// WWC2 (11732394_at) / RFU HLA-DPB1 (11760878_x_at) / Fold change /veh HLA-DPB1 (11760878_x_at) / RFU SPINT1 (11716480_a_at) / Fold change /veh SPINT1 (11716480_a_at) / RFU GAP43 (11754022_s_at) / Fold change /veh GAP43 (11754022_s_at) / RFU A4GNT (11735810_at) / Fold change /veh A4GNT (11735810_at) / RFU PRB3 (11715151_x_at) / Fold change /veh PRB3 (11715151_x_at) / RFU TUBB4B (11761932_at) / Fold change /veh TUBB4B (11761932_at) / RFU CAPN14 (11732068_a_at) / Fold change /veh CAPN14 (11732068_a_at) / RFU TMCC2 (11721928_a_at) / Fold change /veh TMCC2 (11721928_a_at) / RFU IRGQ (11745062_a_at) / Fold change /veh IRGQ (11745062_a_at) / RFU FAM174B (11720279_a_at) / Fold change /veh FAM174B (11720279_a_at) / RFU TMPRSS4 (11748680_a_at) / Fold change /veh TMPRSS4 (11748680_a_at) / RFU FAM212B (11763350_a_at) / Fold change /veh FAM212B (11763350_a_at) / RFU PLEKHG5 (11743358_a_at) / Fold change /veh PLEKHG5 (11743358_a_at) / RFU ZSCAN30 (11745921_a_at) / Fold change /veh ZSCAN30 (11745921_a_at) / RFU CMKLR1 (11741424_a_at) / Fold change /veh CMKLR1 (11741424_a_at) / RFU LOC101060620 /// MAPK8IP1 (11723275_at) / Fold change /veh LOC101060620 /// MAPK8IP1 (11723275_at) / RFU SPTSSB (11747773_x_at) / Fold change /veh SPTSSB (11747773_x_at) / RFU PRSS12 (11739890_at) / Fold change /veh PRSS12 (11739890_at) / RFU BIN1 (11741810_x_at) / Fold change /veh BIN1 (11741810_x_at) / RFU WNT11 (11732464_a_at) / Fold change /veh WNT11 (11732464_a_at) / RFU C10orf10 (11716521_a_at) / Fold change /veh C10orf10 (11716521_a_at) / RFU C5orf56 (11738089_at) / Fold change /veh C5orf56 (11738089_at) / RFU CYB561 (11721691_x_at) / Fold change /veh CYB561 (11721691_x_at) / RFU ANKRD19P (11752326_a_at) / Fold change /veh ANKRD19P (11752326_a_at) / RFU OR2T12 /// OR2T33 /// OR2T8 (11738714_s_at) / Fold change /veh OR2T12 /// OR2T33 /// OR2T8 (11738714_s_at) / RFU VCAN (11748164_a_at) / Fold change /veh VCAN (11748164_a_at) / RFU JSRP1 (11732532_at) / Fold change /veh JSRP1 (11732532_at) / RFU KRTAP10-11 (11738290_x_at) / Fold change /veh KRTAP10-11 (11738290_x_at) / RFU MYO3A (11730013_a_at) / Fold change /veh MYO3A (11730013_a_at) / RFU EBF3 (11725865_a_at) / Fold change /veh EBF3 (11725865_a_at) / RFU CAMK2N1 (11719241_x_at) / Fold change /veh CAMK2N1 (11719241_x_at) / RFU C5orf56 (11738088_a_at) / Fold change /veh C5orf56 (11738088_a_at) / RFU OLFML3 (11715873_a_at) / Fold change /veh OLFML3 (11715873_a_at) / RFU LOC100653217 /// NTM (11731650_a_at) / Fold change /veh LOC100653217 /// NTM (11731650_a_at) / RFU MAPK11 (11762145_a_at) / Fold change /veh MAPK11 (11762145_a_at) / RFU FIZ1 (11724087_x_at) / Fold change /veh FIZ1 (11724087_x_at) / RFU OASL (11726364_x_at) / Fold change /veh OASL (11726364_x_at) / RFU SOX15 (11748057_x_at) / Fold change /veh SOX15 (11748057_x_at) / RFU CD79A (11719716_a_at) / Fold change /veh CD79A (11719716_a_at) / RFU HIST1H1D (11736915_at) / Fold change /veh HIST1H1D (11736915_at) / RFU CASKIN2 (11723855_a_at) / Fold change /veh CASKIN2 (11723855_a_at) / RFU LOC730098 (11760151_x_at) / Fold change /veh LOC730098 (11760151_x_at) / RFU OR4N2 (11742367_at) / Fold change /veh OR4N2 (11742367_at) / RFU PRRT2 (11749266_a_at) / Fold change /veh PRRT2 (11749266_a_at) / RFU SNX32 (11753110_a_at) / Fold change /veh SNX32 (11753110_a_at) / RFU CDHR5 (11726645_a_at) / Fold change /veh CDHR5 (11726645_a_at) / RFU RCAN1 (11760418_a_at) / Fold change /veh RCAN1 (11760418_a_at) / RFU FAM167A (11723789_a_at) / Fold change /veh FAM167A (11723789_a_at) / RFU FAM26E (11764081_at) / Fold change /veh FAM26E (11764081_at) / RFU ISYNA1 (11749810_s_at) / Fold change /veh ISYNA1 (11749810_s_at) / RFU ACY1 (11761880_at) / Fold change /veh ACY1 (11761880_at) / RFU 11764098_at / Fold change /veh 11764098_at / RFU SAMD14 (11745864_x_at) / Fold change /veh SAMD14 (11745864_x_at) / RFU NPB (11741838_a_at) / Fold change /veh NPB (11741838_a_at) / RFU TMPRSS6 (11731388_a_at) / Fold change /veh TMPRSS6 (11731388_a_at) / RFU KRTAP10-2 (11738614_at) / Fold change /veh KRTAP10-2 (11738614_at) / RFU ARHGAP8 /// PRR5-ARHGAP8 (11727945_x_at) / Fold change /veh ARHGAP8 /// PRR5-ARHGAP8 (11727945_x_at) / RFU KRTAP5-7 /// NADSYN1 (11734609_at) / Fold change /veh KRTAP5-7 /// NADSYN1 (11734609_at) / RFU RASL12 (11751679_a_at) / Fold change /veh RASL12 (11751679_a_at) / RFU CDKN2B (11736163_a_at) / Fold change /veh CDKN2B (11736163_a_at) / RFU PRF1 (11729649_at) / Fold change /veh PRF1 (11729649_at) / RFU, ZNF638 /// ZNF638-IT1 / Fold change vs veh, ZNF638 /// ZNF638-IT1 / RFU, PANK3 / Fold change vs veh, PANK3 / RFU, SH3YL1 / Fold change vs veh, SH3YL1 / RFU, ZEB2 / Fold change vs veh, ZEB2 / RFU, NRIP1 / Fold change vs veh, NRIP1 / RFU, PTTG1IP / Fold change vs veh, PTTG1IP / RFU, CAPN2 / Fold change vs veh, CAPN2 / RFU, MED14 / Fold change vs veh, MED14 / RFU, SNORA58 / Fold change vs veh, SNORA58 / RFU, C1orf63 / Fold change vs veh, C1orf63 / RFU, LRRFIP1 / Fold change vs veh, LRRFIP1 / RFU, NDUFAF7 / Fold change vs veh, NDUFAF7 / RFU, SLC12A2 / Fold change vs veh, SLC12A2 / RFU, IBTK / Fold change vs veh, IBTK / RFU, ESF1 / Fold change vs veh, ESF1 / Fold change vs veh, TMEM50B / RFU, TAOK1 / Fold change vs veh, TAOK1 / RFU, ACBD3 / Fold change vs veh, ACBD3 / RFU, TMA16 / Fold change vs veh, TMA16 / RFU, RWDD3 / Fold change vs veh, RWDD3 / RFU, BCAT1 / Fold change vs veh, BCAT1 / RFU, EDEM3 / Fold change vs veh, EDEM3 / RFU, TMEM33 / Fold change vs veh, TMEM33 / RFU, WDR75 / Fold change vs veh, WDR75 / RFU, AHCTF1 / Fold change vs veh, AHCTF1 / RFU, TFRC / Fold change vs veh, TFRC / RFU, ZDHHC17 / Fold change vs veh, ZDHHC17 / RFU, NOM1 / Fold change vs veh, NOM1 / RFU, ARL8B / Fold change vs veh, ARL8B / RFU, ZBTB11 / Fold change vs veh, ZBTB11 / RFU, TAMM41 / Fold change vs veh, TAMM41 / RFU, KIAA1704 /// LOC100996395 / Fold change vs veh, KIAA1704 /// LOC100996395 / RFU, ING1 / Fold change vs veh, ING1 / RFU, TRMT61B / Fold change vs veh, TRMT61B / RFU, FUBP3 / Fold change vs veh, FUBP3 / RFU, TP53 / Fold change vs veh, TP53 / RFU, TNKS2 / Fold change vs veh, TNKS2 / RFU, ZFP14 / Fold change vs veh, ZFP14 / RFU, ACTR2 / Fold change vs veh, ACTR2 / RFU, PPP3R1 / Fold change vs veh, PPP3R1 / RFU, PIK3R1 / Fold change vs veh, PIK3R1 / RFU, HNRNPA1 / Fold change vs veh, HNRNPA1 / RFU, RNF170 / Fold change vs veh, RNF170 / RFU, ZNF28 / Fold change vs veh, ZNF28 / RFU, RNGTT / Fold change vs veh, RNGTT / RFU, OGT / Fold change vs veh, OGT / RFU, BRD1 / Fold change vs veh, BRD1 / RFU, MARS / Fold change vs veh, MARS / RFU, ZNF655 / Fold change vs veh, ZNF655 / RFU, FAHD1 / Fold change vs veh, FAHD1 / RFU, BDP1 / Fold change vs veh, BDP1 / RFU, LRRCC1 / Fold change vs veh, LRRCC1 / RFU, ARID1A / Fold change vs veh, ARID1A / RFU, ZNF146 / Fold change vs veh, ZNF146 / RFU, ZNF330 / Fold change vs veh, ZNF330 / RFU, GPN3 / Fold change vs veh, GPN3 / RFU, C9orf123 / Fold change vs veh, C9orf123 / RFU, N4BP2L2 / Fold change vs veh, N4BP2L2 / RFU, ARFIP1 / Fold change vs veh, ARFIP1 / RFU, FAM179B / Fold change vs veh, FAM179B / RFU, BCL10 / Fold change vs veh, BCL10 / RFU, UHRF1BP1L / Fold change vs veh, UHRF1BP1L / RFU, BET1 / Fold change vs veh, BET1 / RFU, CNOT2 / Fold change vs veh, CNOT2 / RFU, ZNF268 / Fold change vs veh, ZNF268 / Fold change vs veh, ZNF507 / RFU, DGCR2 / Fold change vs veh, DGCR2 / RFU, WDSUB1 / Fold change vs veh, WDSUB1 / Fold change vs veh, HSP90B1 /// MIR3652 / RFU, ADSS / Fold change vs veh, ADSS / RFU, GK / Fold change vs veh, GK / RFU, ZNF148 / Fold change vs veh, ZNF148 / RFU, TAF9 / Fold change vs veh, TAF9 / RFU, SLC1A5 / Fold change vs veh, SLC1A5 / RFU, SLMO2 / Fold change vs veh, SLMO2 / RFU, ABCC4 / Fold change vs veh, ABCC4 / RFU, LOC101060439 /// RAP1B / Fold change vs veh, LOC101060439 /// RAP1B / RFU, RFX7 / Fold change vs veh, RFX7 / RFU, GTPBP10 / Fold change vs veh, GTPBP10 / RFU, CNEP1R1 / Fold change vs veh, CNEP1R1 / RFU, BIVM-ERCC5 /// ERCC5 / Fold change vs veh, BIVM-ERCC5 /// ERCC5 / RFU, ILF3 / Fold change vs veh, ILF3 / RFU 11762660_at / Fold change /veh 11762660_at / RFU VCAN (11757783_s_at) / Fold change /veh VCAN (11757783_s_at) / RFU DDX43 (11728927_at) / Fold change /veh DDX43 (11728927_at) / RFU KRT8 (11758188_x_at) / Fold change /veh KRT8 (11758188_x_at) / RFU NKD1 (11759106_at) / Fold change /veh NKD1 (11759106_at) / RFU SRD5A1 (11742802_a_at) / Fold change /veh SRD5A1 (11742802_a_at) / RFU TPSAB1 /// TPSB2 (11721975_s_at) / Fold change /veh TPSAB1 /// TPSB2 (11721975_s_at) / RFU GSTM3 (11746129_a_at) / Fold change /veh GSTM3 (11746129_a_at) / RFU IL23R (11737362_x_at) / Fold change /veh IL23R (11737362_x_at) / RFU TMEM51 (11727254_a_at) / Fold change /veh TMEM51 (11727254_a_at) / RFU PIWIL2 (11732686_x_at) / Fold change /veh PIWIL2 (11732686_x_at) / RFU ORM1 (11744905_x_at) / Fold change /veh ORM1 (11744905_x_at) / RFU CCDC152 (11743942_at) / Fold change /veh CCDC152 (11743942_at) / RFU ECM1 (11717891_a_at) / Fold change /veh ECM1 (11717891_a_at) / RFU IL23R (11748794_a_at) / Fold change /veh IL23R (11748794_a_at) / RFU TNFAIP8L3 (11732012_x_at) / Fold change /veh TNFAIP8L3 (11732012_x_at) / RFU MBOAT4 (11741988_at) / Fold change /veh MBOAT4 (11741988_at) / RFU 11764193_at / Fold change /veh 11764193_at / RFU TMEM53 (11763286_at) / Fold change /veh TMEM53 (11763286_at) / RFU MAGEB2 (11727129_at) / Fold change /veh MAGEB2 (11727129_at) / RFU TMEM200A (11744735_a_at) / Fold change /veh TMEM200A (11744735_a_at) / RFU CCDC152 (11751479_a_at) / Fold change /veh CCDC152 (11751479_a_at) / RFU FAM211A (11726209_a_at) / Fold change /veh FAM211A (11726209_a_at) / RFU RGS16 (11746705_a_at) / Fold change /veh RGS16 (11746705_a_at) / RFU VCAN (11755009_s_at) / Fold change /veh VCAN (11755009_s_at) / RFU RHOB (11743442_s_at) / Fold change /veh RHOB (11743442_s_at) / RFU RGS16 (11720943_a_at) / Fold change /veh RGS16 (11720943_a_at) / RFU RGS16 (11720944_at) / Fold change /veh RGS16 (11720944_at) / RFU, VPS4B / Fold change vs veh, VPS4B / RFU, CREB1 / Fold change vs veh, CREB1 / RFU, DNAJC13 / Fold change vs veh, DNAJC13 / RFU, GNAQ / Fold change vs veh, GNAQ / RFU, CDK5R1 / Fold change vs veh, CDK5R1 / RFU, ZRANB3 / Fold change vs veh, ZRANB3 / RFU, CUL4A / Fold change vs veh, CUL4A / RFU, CCNY / Fold change vs veh, CCNY / RFU, UFL1 / Fold change vs veh, UFL1 / RFU, COG3 / Fold change vs veh, COG3 / RFU, DIAPH2 / Fold change vs veh, DIAPH2 / RFU, SKA2 / Fold change vs veh, SKA2 / RFU, AFF3 / Fold change vs veh, AFF3 / RFU, LMF1 / Fold change vs veh, LMF1 / RFU, IPO11 / Fold change vs veh, IPO11 / RFU, DFFB / Fold change vs veh, DFFB / RFU, FOXP1 / Fold change vs veh, FOXP1 / RFU, CARD8 / Fold change vs veh, CARD8 / RFU, STRN3 / Fold change vs veh, STRN3 / RFU, ADK / Fold change vs veh, ADK / RFU, RASSF2 / Fold change vs veh, RASSF2 / RFU, WIPF1 / Fold change vs veh, WIPF1 / RFU, LARP1B / Fold change vs veh, LARP1B / RFU, RASA1 / Fold change vs veh, RASA1 / RFU, RB1 / Fold change vs veh, RB1 / RFU, PPFIA1 / Fold change vs veh, PPFIA1 / RFU, MAT2A / Fold change vs veh, MAT2A / RFU, CCT5 / Fold change vs veh, CCT5 / RFU, WDR92 / Fold change vs veh, WDR92 / RFU, CUX1 / Fold change vs veh, CUX1 / RFU, TTC7A / Fold change vs veh, TTC7A / RFU, TMEM135 / Fold change vs veh, TMEM135 / RFU, DEPTOR / Fold change vs veh, DEPTOR / RFU, CPM / Fold change vs veh, CPM / RFU, DNAJB6 / Fold change vs veh, DNAJB6 / RFU, CACNA2D3 / Fold change vs veh, CACNA2D3 / RFU, DTX4 / Fold change vs veh, DTX4 / RFU, TFCP2 / Fold change vs veh, TFCP2 / RFU, GMCL1 /// GMCL1P1 / Fold change vs veh, GMCL1 /// GMCL1P1 / RFU, AEBP2 / Fold change vs veh, AEBP2 / RFU, SNHG1 /// SNORD22 /// SNORD25 /// SNORD26 /// SNORD27 /// SNORD28 /// SNORD29 /// SNORD31 / Fold change vs veh, SNHG1 /// SNORD22 /// SNORD25 /// SNORD26 /// SNORD27 /// SNORD28 /// SNORD29 /// SNORD31 / Fold change (Aza/veh), C12orf56 (ProbeSet 11735607_a_at) / Fold change (ACY-1035/veh), C12orf56 (ProbeSet 11735607_a_at) / Fold change (Aza/veh), FGFR1OP (ProbeSet 11751329_s_at) / Fold change (ACY-1035/veh), FGFR1OP (ProbeSet 11751329_s_at) / Fold change (Aza/veh), VPS36 (ProbeSet 11739960_a_at) / Fold change (ACY-1035/veh), VPS36 (ProbeSet 11739960_a_at) / RFU SYPL1 (11715823_x_at) / Fold change /veh SYPL1 (11715823_x_at) / RFU IGFBP7 (11715501_s_at) / Fold change /veh IGFBP7 (11715501_s_at) / RFU REEP3 (11722064_at) / Fold change /veh REEP3 (11722064_at) / RFU IGLL1 (11728026_x_at) / Fold change /veh IGLL1 (11728026_x_at): dose or concentration left out as unconfirmed. To be noted: ProbeSet 11733831_s_at; LIST D.

As to `Nc1ncn([C@@H]2O[C@H](CO)[C@@H](O)[C@H]2O)c(=O)n1` [azacitidine], the “RFU, GMCL1 /// GMCL1P1” value is 32.38 RFU.
